Results reported in ChEMBL document CHEMBL5346867, “A close look into the biological and synthetic aspects of fused pyrazole derivatives” (Eur J Med Chem, 2022).

Experiments:
[1] = molecular target: T1, Sodium-dependent proline transporter (Homo sapiens) (UniProt Q99884); assay: Inhibition of human PROT at 0.1 uM relative to control
T1 sequence (whole entry): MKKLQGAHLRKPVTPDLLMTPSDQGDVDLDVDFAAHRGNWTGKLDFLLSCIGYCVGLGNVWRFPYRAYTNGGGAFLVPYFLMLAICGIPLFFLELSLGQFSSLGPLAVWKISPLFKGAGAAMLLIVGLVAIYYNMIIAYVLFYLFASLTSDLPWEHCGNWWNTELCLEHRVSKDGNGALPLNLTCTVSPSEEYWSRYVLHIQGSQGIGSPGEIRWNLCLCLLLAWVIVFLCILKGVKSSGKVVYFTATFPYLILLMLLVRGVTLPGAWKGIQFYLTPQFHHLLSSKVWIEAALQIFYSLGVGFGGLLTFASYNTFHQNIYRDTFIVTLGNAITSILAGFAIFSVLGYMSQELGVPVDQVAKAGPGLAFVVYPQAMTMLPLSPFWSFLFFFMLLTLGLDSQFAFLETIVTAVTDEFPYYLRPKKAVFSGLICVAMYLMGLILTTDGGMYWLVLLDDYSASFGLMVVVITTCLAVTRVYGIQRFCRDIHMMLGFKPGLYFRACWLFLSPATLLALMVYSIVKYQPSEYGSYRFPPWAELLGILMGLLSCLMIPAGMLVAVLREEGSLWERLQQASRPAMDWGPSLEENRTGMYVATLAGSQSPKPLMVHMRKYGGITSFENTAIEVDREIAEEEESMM

[2] = molecular target: Epidermal growth factor receptor (Homo sapiens, UniProt P00533); assay: Inhibition of EGFR (unknown origin)
[3] = molecular target: Vascular endothelial growth factor receptor 2 (Homo sapiens, UniProt P35968); assay: Inhibition of VEGFR-2 (unknown origin)
[4] = test system: Bovine viral diarrhea virus 1; assay: Antiviral activity against Bovine viral diarrhea virus 1 infected in MDBK cells assessed as reduction in viral replication; assay type: functional, organism-based; details: Bovine viral diarrhea virus isolates and strains
HT-29 = assay: cells; details: Homo sapiens, HT-29, 48 h
Description: Anti-proliferative activity against human HT-29 assessed as inhibition of cell growth incubated for 48 hrs by MTT assay

Chain of Epidermal growth factor receptor (P00533 whole entry): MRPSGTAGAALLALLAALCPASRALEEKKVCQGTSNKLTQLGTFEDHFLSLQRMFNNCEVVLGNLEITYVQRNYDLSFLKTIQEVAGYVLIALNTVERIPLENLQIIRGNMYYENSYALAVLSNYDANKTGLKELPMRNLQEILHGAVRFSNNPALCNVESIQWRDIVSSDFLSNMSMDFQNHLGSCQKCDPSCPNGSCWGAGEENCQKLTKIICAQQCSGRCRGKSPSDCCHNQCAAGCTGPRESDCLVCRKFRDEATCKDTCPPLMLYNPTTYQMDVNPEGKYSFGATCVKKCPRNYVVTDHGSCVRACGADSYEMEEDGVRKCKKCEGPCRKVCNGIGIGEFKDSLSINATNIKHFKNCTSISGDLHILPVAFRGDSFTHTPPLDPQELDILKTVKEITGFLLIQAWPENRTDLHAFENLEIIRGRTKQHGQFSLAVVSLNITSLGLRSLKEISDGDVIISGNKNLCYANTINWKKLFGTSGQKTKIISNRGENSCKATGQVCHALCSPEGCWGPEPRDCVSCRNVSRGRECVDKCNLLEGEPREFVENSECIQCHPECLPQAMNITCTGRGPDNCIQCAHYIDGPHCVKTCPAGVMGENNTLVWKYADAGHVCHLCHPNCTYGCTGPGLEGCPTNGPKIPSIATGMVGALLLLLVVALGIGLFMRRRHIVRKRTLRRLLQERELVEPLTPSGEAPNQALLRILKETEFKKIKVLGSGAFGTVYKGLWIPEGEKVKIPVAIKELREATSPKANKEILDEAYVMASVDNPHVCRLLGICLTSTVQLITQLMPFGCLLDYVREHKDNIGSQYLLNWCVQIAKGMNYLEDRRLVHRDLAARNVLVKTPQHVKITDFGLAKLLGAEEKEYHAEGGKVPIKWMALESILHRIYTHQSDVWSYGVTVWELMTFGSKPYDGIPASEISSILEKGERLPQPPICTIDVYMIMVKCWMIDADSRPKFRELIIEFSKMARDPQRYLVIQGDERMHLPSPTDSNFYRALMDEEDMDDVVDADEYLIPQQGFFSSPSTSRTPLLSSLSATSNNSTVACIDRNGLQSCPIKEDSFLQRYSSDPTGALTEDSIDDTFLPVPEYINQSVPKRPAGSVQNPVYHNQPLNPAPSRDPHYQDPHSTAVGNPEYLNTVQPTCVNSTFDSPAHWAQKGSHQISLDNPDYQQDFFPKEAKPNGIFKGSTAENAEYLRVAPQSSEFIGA
Chain of Vascular endothelial growth factor receptor 2 (P35968 whole entry): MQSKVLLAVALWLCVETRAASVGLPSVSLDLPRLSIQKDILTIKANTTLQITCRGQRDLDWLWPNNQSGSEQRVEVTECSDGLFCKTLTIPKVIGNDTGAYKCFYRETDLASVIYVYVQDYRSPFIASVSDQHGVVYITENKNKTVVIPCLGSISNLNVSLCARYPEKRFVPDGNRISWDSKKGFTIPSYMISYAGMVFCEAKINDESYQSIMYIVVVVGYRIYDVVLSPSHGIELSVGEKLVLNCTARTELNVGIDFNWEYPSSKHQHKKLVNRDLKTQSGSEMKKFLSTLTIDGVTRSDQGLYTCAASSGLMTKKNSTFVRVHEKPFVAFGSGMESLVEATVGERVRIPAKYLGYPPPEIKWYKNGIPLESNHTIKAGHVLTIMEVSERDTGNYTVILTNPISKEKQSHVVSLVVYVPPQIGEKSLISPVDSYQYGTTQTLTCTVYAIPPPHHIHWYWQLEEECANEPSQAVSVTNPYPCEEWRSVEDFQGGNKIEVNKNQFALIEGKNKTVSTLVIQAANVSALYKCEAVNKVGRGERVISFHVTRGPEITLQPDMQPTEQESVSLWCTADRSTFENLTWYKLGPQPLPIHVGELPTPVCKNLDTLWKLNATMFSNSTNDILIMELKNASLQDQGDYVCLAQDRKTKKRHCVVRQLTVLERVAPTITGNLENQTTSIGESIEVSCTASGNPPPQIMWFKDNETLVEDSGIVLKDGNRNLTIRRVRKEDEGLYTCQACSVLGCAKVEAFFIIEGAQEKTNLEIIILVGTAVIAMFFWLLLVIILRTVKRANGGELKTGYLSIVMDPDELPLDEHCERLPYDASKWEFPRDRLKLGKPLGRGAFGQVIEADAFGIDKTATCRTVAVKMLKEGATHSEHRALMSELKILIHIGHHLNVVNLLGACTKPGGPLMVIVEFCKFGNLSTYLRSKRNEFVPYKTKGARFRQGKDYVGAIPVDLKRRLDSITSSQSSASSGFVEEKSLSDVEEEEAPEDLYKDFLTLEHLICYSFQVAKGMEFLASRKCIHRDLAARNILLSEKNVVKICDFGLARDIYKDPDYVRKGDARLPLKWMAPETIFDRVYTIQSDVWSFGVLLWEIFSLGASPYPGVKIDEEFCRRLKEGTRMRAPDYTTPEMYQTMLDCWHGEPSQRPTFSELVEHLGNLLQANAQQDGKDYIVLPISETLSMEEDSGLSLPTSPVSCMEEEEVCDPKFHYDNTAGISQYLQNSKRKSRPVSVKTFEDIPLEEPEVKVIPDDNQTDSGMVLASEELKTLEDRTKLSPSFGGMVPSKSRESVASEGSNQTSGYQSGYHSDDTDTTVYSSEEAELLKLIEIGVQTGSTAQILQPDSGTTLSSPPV

CCCCC[C@H]1CCCN1C(=O)c1nn(C(C)(C)C)c2nc(NC(=O)c3ccc(C)cc3)sc12
inhibition [1]: 50%

CC1=NNC2Oc3ncn(N)c(=N)c3C(c3ccccc3Br)C12 (stereo unspecified)
IC50 [2]: 0.06 µM

CC1=NNC2OC(NS(=O)(=O)c3ccc(C)cc3)=C(C#N)C(c3ccccc3Br)C12 (stereo unspecified)
IC50 [3]: 0.22 µM

NC(=O)c1ncn([C@@H]2O[C@H](CO)[C@@H](O)[C@H]2O)n1 [RIBAVIRIN]
EC50 [4]: 1.3 µM

Cc1nn(-c2ccc(Cl)cc2)c2c1C(=O)N(c1ccccc1)C2
EC50 [4]: 0.12 µM

COc1cc(/C=N/NC(=O)COc2nc(C)nc3c2c(C)nn3-c2ccccc2)cc(OC)c1OC
IC50 (HT-29): 5.36 µM
